Results reported in patent publication US20130274281A1, “METHODS OF TREATING METASTATIC BREAST CANCER WITH 4-IODO-3-NITROBENZAMIDE AND IRINOTECAN” (BiPar Sciences, Inc., priority 2010, published 2013).

How the values were obtained:
Bcr-ab1 = conditions: background statement; read-out: IC50, inhibition of Bcr-ab1 phosphorylation; cited from earlier work
[1] = tested on: panel of 63 other kinases, including native c-Ab1; conditions: background statement; cited from earlier work
[2] = tested on: cells not expressing Bcr-Ab1; conditions: background statement; cited from earlier work
advanced solid tumors [3] = format: in vivo, human
Description: Phase 1: 4-iodo-3-nitrobenzamide is administered intravenously twice weekly (days 1 and 4 of each week) for 3 weeks, followed by a one week 4-iodo-3-nitrobenzamide treatment-free period per one 28-day cycle. Cycle one (day 1 through day 28) is defined as the Safety Phase of the study during which DLTs is assessed and the MTD is determined. The remainder of the study is termed the Maintenance Phase. A subject may participate in this study until he/she experiences a drug intolerance or disease progression. […] For non-measurable disease, best medical practices are used to determine disease progression.
In cohort A (starting dose), a single subject receives 4-iodo-3-nitrobenzamide twice weekly at a dose level of 0.5 mg/kg based on weight measured at screening. If this subject experiences a grade 2 toxicity or higher, then 3 additional subjects would be enrolled in this cohort (only 2 additional subjects would be enrolled in this cohort if the initial subject receives at least 80% of the planned cycle 1 doses). If no additional subjects dosed in this cohort experience a DLT, then dose escalation would occur as below. If no DLT occurs in the initial subject, dose escalation would occur as below. The safety review group has the ability to recommend dose escalation (opening of a new cohort), without expansion with additional subjects, for cases of grade 2 toxicity seen in a single subject that are deemed not to be clinically relevant and/or study treatment-related. Dose Escalation Prior to Grade 2 Toxicity (Potential Cohorts B-J): Until a subject experiences a grade 2 toxicity or higher, one subject would be initially enrolled in all subsequent cohorts at planned 100% dose level increases, with possible cohort expansion as described for cohort A. Safety data are reviewed after 6 doses of 4-iodo-3-nitrobenzamide, and a decision to escalate to the next cohort would be made if no subject experiences a grade 2 toxicity or higher. […]

advanced solid tumors [4] = test: 4-iodo-3-nitrobenzamide in combination with cytotoxic chemotherapeutic agents, safety and best response; format: in vivo, human
Description: 42 subjects (advanced solid tumors) were treated with 4-iodo-3-nitrobenzamide in combination with cytotoxic chemotherapeutics agents (topotecan, temozolomide, gemcitabine, or carboplatin/taxol) at 4-iodo-3-nitrobenzamide doses of 1.1, 2.0, 2.8, 4.0 and 5.6 mg/kg.

Row | SMILES | IC50 (Bcr-ab1) | inhibition of a panel of 63 other kinases, including native c-Ab1 [1] | toxicity towards cells not expressing Bcr-Ab1 [2] | best response measured to date (advanced solid tumors [3]; 24 subjects, monotherapy 0.5-8.0 mg/kg) | dose limiting toxicities (DLTs) (advanced solid tumors [3]; in vivo) | cycles of treatment completed with continued stable disease (advanced solid tumors [3]; one subject, monotherapy) | tolerability (advanced solid tumors [4]; 42 subjects, advanced solid tumors, with topotecan, temozolomide, gemcitabine or carboplatin/taxol, BA 1.1, 2.0, 2.8, 4.0 and 5.6 mg/kg, preliminary safety data) | relation of serious adverse events to study drug (advanced solid tumors [4]; 42 subjects, combination with cytotoxic agents, judged by study investigators) | SAEs attributed to drug (advanced solid tumors [4]; either study (monotherapy, 24 subjects; combination with cytotoxic agents, 42 subjects)) | additional toxicities when combined with standard cytotoxic chemotherapy (advanced solid tumors [4]; safety data of both studies) | potentiation of known toxicities of standard chemotherapeutic agents (advanced solid tumors [4]; safety data of both studies)
1 | NC(=O)c1cccc(-c2cc(Nc3ccc(OC(F)(F)F)cc3)ncn2)c1 [GNF-2] | 267 nM | does not inhibit | complete lack of toxicity | – | – | – | – | – | – | – | –
2 | NC(=O)c1ccc(I)c([N+](=O)[O-])c1 [4-iodo-3-nitrobenzamide] | – | – | – | stable disease present through at least cycle 2 of the study for six subjects | no dose limiting toxicities (DLTs) were observed at any dose level | 9 cycles | well tolerated at all dose levels tested | deemed not related to study drug | no SAEs attributed to 4-iodo-3-nitrobenzamide in either study | would not cause any additional toxicities | no evidence that 4-iodo-3-nitrobenzamide would potentiate any known toxicities
